Experimental data reported in ChEMBL document CHEMBL1250533, “QSAR-based solubility model for drug-like compounds” (Bioorg Med Chem, 2010).
In brackets after ≈: the same amount, converted by molar mass.

experiment: Intrinsic solubility of the compound in water; settings: buffer

Structure (SMILES) | solubility
Cc1ccc(Cl)c(Nc2ccccc2C(=O)O)c1Cl [MECLOFENAMIC ACID] | 0.16 µg/mL (≈ 0.54 µM)
NC(N)=Nc1nc(CSCCC(N)=NS(N)(=O)=O)cs1 [FAMOTIDINE] | 760 µg/mL (≈ 2250 µM)
CN[C@H]1CC[C@@H](c2ccc(Cl)c(Cl)c2)c2ccccc21 [SERTRALINE] | 4.5 µg/mL (≈ 14.7 µM)
O=C(O)C(O)c1ccccc1Cl (centres undefined) | Soluble
O=c1[nH]cc(F)c(=O)[nH]1 [FLUOROURACIL] | Soluble
CN(C)CCCN1c2ccccc2Sc2ccc(Cl)cc21 [CHLORPROMAZINE] | 2.7 µg/mL (≈ 8.47 µM)
O=C(O)c1cc(/N=N/c2ccc(S(=O)(=O)Nc3ccccn3)cc2)ccc1O [SULFASALAZINE] | 0.29 µg/mL (≈ 0.728 µM)
C[C@@H]1CN(c2c(F)c(F)c3c(=O)c(C(=O)O)cn(C4CC4)c3c2F)C[C@H](C)N1 [ORBIFLOXACIN] | Soluble
CC1CCc2cc(F)cc3c(=O)c(C(=O)O)cn1c23 (centres undefined) [FLUMEQUINE] | 48 µg/mL (≈ 184 µM)
CN1CCN(c2c(F)cc3c(=O)c(C(=O)O)cn4c3c2OCN4C)CC1 [MARBOFLOXACIN] | Soluble
Cn1cnc([N+](=O)[O-])c1Sc1ncnc2nc[nH]c12 [AZATHIOPRINE] | 172 µg/mL (≈ 620 µM)
CNCCC=C1c2ccccc2CCc2ccccc21 [NORTRIPTYLINE] | 25 µg/mL (≈ 94.9 µM)
Cc1cccc(CN2CCN(C(c3ccccc3)c3ccc(Cl)cc3)CC2)c1 (centres undefined) [MECLIZINE] | 0.13 µg/mL (≈ 0.333 µM)
CCN(CC)CCNC(=O)c1ccc(N)cc1 [PROCAINAMIDE] | Soluble
COc1ccccc1OCCNCC(O)COc1cccc2[nH]c3ccccc3c12 (centres undefined) [CARVEDILOL] | 22.6 µg/mL (≈ 55.6 µM)
O=C(O)c1ccccc1O [SALICYLIC ACID] | 1620 µg/mL (≈ 11700 µM)
CNCCCC12CCC(c3ccccc31)c1ccccc12 [MAPROTILINE] | 5.6 µg/mL (≈ 20.2 µM)
O=C(O)c1ccccc1C(=O)O [PHTHALIC ACID] | 4130 µg/mL (≈ 24900 µM)
CN(C)C(=O)C(CCN1CCC(O)(c2ccc(Cl)cc2)CC1)(c1ccccc1)c1ccccc1 [LOPERAMIDE] | 0.04 µg/mL (≈ 0.0838 µM)
CC(=O)CC(c1ccccc1)c1c(O)c2ccccc2oc1=O (centres undefined) [WARFARIN] | 5.1 µg/mL (≈ 16.5 µM)
CNC(=C[N+](=O)[O-])NCCSCc1ccc(CN(C)C)o1 [RANITIDINE] | 990 µg/mL (≈ 3150 µM)
CC(C(=O)O)c1cccc(Oc2ccccc2)c1 (centres undefined) [FENOPROFEN] | 48 µg/mL (≈ 198 µM)
O=C1CN(/N=C/c2ccc([N+](=O)[O-])o2)C(=O)N1 [NITROFURANTOIN] | 137 µg/mL (≈ 575 µM)

same assay, conditions: water

Structure (SMILES) | solubility [µg/mL]
CN1C(C(=O)Nc2ccccn2)=C(O)c2ccccc2S1(=O)=O [PIROXICAM] | 5.2 (≈ 15.7 µM)
O=C1NC(=O)C(c2ccccc2)(c2ccccc2)N1 [PHENYTOIN] | 35 (≈ 139 µM)
Cc1cccc(Nc2ccccc2C(=O)O)c1C [MEFENAMIC ACID] | 0.04 (≈ 0.166 µM)
O=c1n(CCCN2CCN(c3cccc(Cl)c3)CC2)nc2ccccn12 [TRAZODONE] | 127 (≈ 342 µM)
C=CCN1CC[C@]23c4c5ccc(O)c4O[C@H]2C(=O)CC[C@@]3(O)[C@H]1C5 [NALOXONE] | 414 (≈ 1260 µM)
CCCC(=O)Nc1ccc(OCC(O)CNC(C)C)c(C(C)=O)c1 (centres undefined) [ACEBUTOLOL] | 711 (≈ 2110 µM)
CCn1cc(C(=O)O)c(=O)c2ccc(C)nc21 [NALIDIXIC ACID] | 57 (≈ 245 µM)
CN1CCN(C2=Nc3cc(Cl)ccc3Nc3ccccc32)CC1 [CLOZAPINE] | 189 (≈ 578 µM)
CCn1cc(C(=O)O)c(=O)c2cc(F)c(N3CCNCC3)cc21 [NORFLOXACIN] | 559 (≈ 1750 µM)
CC(=O)OCC1=C(C(=O)O)N2C(=O)[C@@H](NC(=O)Cc3cccs3)[C@H]2SC1 [CEPHALOTHIN] | 457 (≈ 1150 µM)
O=C(O)c1cc(Br)c(O)cc1O | 559 (≈ 2400 µM)
O=C(O)c1cc(-c2ccc(F)cc2F)ccc1O [DIFLUNISAL] | 0.29 (≈ 1.16 µM)
CN1CCN(c2cc3c(cc2F)c(=O)c(C(=O)O)cn3-c2ccc(F)cc2)CC1 [DIFLOXACIN] | 100 (≈ 250 µM)
C[C@@H]1CN(c2c(F)c(N)c3c(=O)c(C(=O)O)cn(C4CC4)c3c2F)C[C@H](C)N1 [SPARFLOXACIN] | 167 (≈ 426 µM)
CCn1cc(C(=O)O)c(=O)c2cc(F)c(N3CCNC(C)C3)c(F)c21 (centres undefined) [LOMEFLOXACIN] | 1630 (≈ 4640 µM)
NS(=O)(=O)c1cc2c(cc1C(F)(F)F)NCNS2(=O)=O [HYDROFLUMETHIAZIDE] | 360 (≈ 1090 µM)
CCCCNc1ccc(C(=O)OCCN(C)C)cc1 [TETRACAINE] | 258 (≈ 976 µM)
NCCc1c[nH]c2ccccc12 [TRYPTAMINE] | 80 (≈ 499 µM)
CCCN(CCC)S(=O)(=O)c1ccc(C(=O)O)cc1 [PROBENECID] | 3.9 (≈ 13.7 µM)
CN(C)CCCN1c2ccccc2CCc2ccccc21 [IMIPRAMINE] | 22 (≈ 78.5 µM)
CCCNC(=O)NS(=O)(=O)c1ccc(Cl)cc1 [CHLORPROPAMIDE] | 156 (≈ 564 µM)
CN(C)CCC=C1c2ccccc2CCc2ccccc21 [AMITRIPTYLINE] | 7.8 (≈ 28.1 µM)
Clc1ccc(COC(Cn2ccnc2)c2ccc(Cl)cc2Cl)c(Cl)c1 (centres undefined) [MICONAZOLE] | 3.5 (≈ 8.41 µM)
NC12CC3CC(CC(C3)C1)C2 [AMANTADINE] | 2120 (≈ 14000 µM)
CC(C)NCC(O)COc1cccc2[nH]ccc12 (centres undefined) [PINDOLOL] | 40 (≈ 161 µM)
NS(=O)(=O)c1cc2c(cc1Cl)N=C(CSCc1ccccc1)NS2(=O)=O [BENZTHIAZIDE] | 6.4 (≈ 14.8 µM)

Structure (SMILES) | solubility [µg/mL]
CCCCNC(=O)NS(=O)(=O)c1ccc(C)cc1 [TOLBUTAMIDE] | 93 (≈ 344 µM)
c1ccc2[nH]c(-c3cscn3)nc2c1 [THIABENDAZOLE] | 66 (≈ 328 µM)
COc1ccc(Cc2nccc3cc(OC)c(OC)cc23)cc1OC [PAPAVERINE] | 46 (≈ 136 µM)
Nc1ccc(Br)cc1C(=O)O | 182 (≈ 842 µM)
CNCCCN1c2ccccc2CCc2ccccc21 [DESIPRAMINE] | 63 (≈ 236 µM)
Nc1nc2nc[nH]c2c(=O)[nH]1 [GUANINE] | 5.6 (≈ 37.1 µM)
CC(CN(C)C)CN1c2ccccc2CCc2ccccc21 (centres undefined) [TRIMIPRAMINE] | 4.8 (≈ 16.3 µM)
c1ccc(Cn2ccnc2)cc1 [BENZYLIMIDAZOLE] | 874 (≈ 5520 µM)
CC1=NS(=O)(=O)c2cc(Cl)ccc2N1 [DIAZOXIDE] | 100 (≈ 434 µM)
Cc1ccc(C(=O)c2ccc(CC(=O)O)n2C)cc1 [TOLMETIN] | 21 (≈ 81.6 µM)
Cc1nnc(NS(=O)(=O)c2ccc(N)cc2)s1 [SULFAMETHIZOLE] | 450 (≈ 1660 µM)
O=C(O)c1ccc(O)cc1 [PARABEN] | 4740 (≈ 34300 µM)
Oc1ccc(I)cc1 | 4250 (≈ 19300 µM)
CCOC(=O)c1ccc(N)cc1 [BENZOCAINE] | 780 (≈ 4720 µM)
CCN1CCN(c2cc3c(cc2F)c(=O)c(C(=O)O)cn3C2CC2)CC1 [ENROFLOXACIN] | 237 (≈ 659 µM)
C=CCc1ccccc1OCC(O)CNC(C)C (centres undefined) [ALPRENOLOL] | 580 (≈ 2330 µM)
CC(C(=O)O)c1ccc(-c2ccccc2)c(F)c1 (centres undefined) [FLURBIPROFEN] | 17.2 (≈ 70.4 µM)
CCCCOc1cc(C(=O)NCCN(CC)CC)c2ccccc2n1 [DIBUCAINE] | 14 (≈ 40.8 µM)
O=C(O)c1cn(-c2ccc(F)cc2)c2cc(N3CCNCC3)c(F)cc2c1=O [SARAFLOXACIN] | 280 (≈ 727 µM)
Nc1ccc(/N=N/c2ccccc2)c(N)n1 [PHENAZOPYRIDINE] | 13.7 (≈ 64.2 µM)
CCN(CC)CCOC(=O)c1ccc(N)cc1 [PROCAINE] | 4500 (≈ 19000 µM)
OCCN(CCO)c1nc(N2CCCCC2)c2nc(N(CCO)CCO)nc(N3CCCCC3)c2n1 [DIPYRIDAMOLE] | 3.46 (≈ 6.86 µM)
C#CCN(C)[C@H](C)Cc1ccccc1 [SELEGILINE] | 575 (≈ 3070 µM)
CCc1nc(N)nc(N)c1-c1ccc(Cl)cc1 [PYRIMETHAMINE] | 19.4 (≈ 78 µM)
CC(C(=O)O)c1ccc2c(c1)[nH]c1ccc(Cl)cc12 (centres undefined) [CARPROFEN] | 5.5 (≈ 20.1 µM)
